Laboratory results reported in paper PMC5706701, “Development of a homogenous high-throughput assay for inositol hexakisphosphate kinase 1 activity” (PLoS ONE, 2017).
Where a name gives a salt, the structure may show the parent alone. Read-outs that look alike come from different tables or passages of the source.

Target: T1, Human IP6K1 (Homo sapiens, UniProt Q92551)
T1 construct: GST (N, cleaved yes); made in house; host or cells: C43 E. coli, pGEX-6P-2
Assay: IP6K1 high-throughput screen of the Sigma LOPAC (ADP-Glo Max, single point);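 further: final compound concentration 10µM in 5% DMSO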
Assay type: biochemical

[1] = LOPAC single-point screen, ADP-Glo Max luminescence raw signal per well
[2] = LOPAC single-point screen, Z-score relative to plate average and StDev
[3] = Sigma LOPAC single-point screen, ADP-Glo Max raw signal per well
[4] = Sigma LOPAC single-point screen, Z-score from plate average and StDev
[5] = LOPAC single-point screen, ADP-Glo Max raw signal per well
[6] = LOPAC single-point screen, Z-score from raw signal with plate average and StDev
[7] = LOPAC single-point screen, Z-score against plate average and StDev
[8] = LOPAC single-point screen, Z-score from plate average and StDev

T1 sequence (Q92551 whole entry): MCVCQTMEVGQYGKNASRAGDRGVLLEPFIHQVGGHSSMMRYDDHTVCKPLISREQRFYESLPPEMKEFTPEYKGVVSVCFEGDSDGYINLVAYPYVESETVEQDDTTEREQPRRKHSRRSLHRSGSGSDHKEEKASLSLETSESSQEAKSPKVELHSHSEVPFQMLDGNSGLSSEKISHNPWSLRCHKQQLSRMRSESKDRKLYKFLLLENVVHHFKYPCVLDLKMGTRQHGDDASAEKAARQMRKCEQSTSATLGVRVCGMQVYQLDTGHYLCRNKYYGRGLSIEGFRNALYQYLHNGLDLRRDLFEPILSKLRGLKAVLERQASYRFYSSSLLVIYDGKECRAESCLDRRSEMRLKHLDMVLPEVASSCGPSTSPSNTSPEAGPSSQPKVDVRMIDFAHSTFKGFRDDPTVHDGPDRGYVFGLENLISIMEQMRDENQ

Nc1ncnc2c1nc(Sc1ccc(Cl)cc1)n2C1OC2COP(=O)(O)OC2C1O (stereo in doubt) [8-(4-Chlorophenylthio)-cAMP sodium]
Raw Signal [1]: 54805 | Z-score [2]: -0.5474

COc1ccc(OC)c(C(O)C(C)N)c1 (centres unmarked) [Methoxamine hydrochloride]
Raw Signal [3]: 57572 | Z-score [4]: 0.5341

S=C(NC1CCCCC1)N1CCC(c2cnc[nH]2)CC1 [Thioperamide maleate]
Raw Signal [5]: 54981 | Z-score [6]: -0.2026

(-)-3-Methoxynaltrexone hydrochloride
Raw Signal [5]: 54969 | Z-score [7]: 0.0967

Cl.O=C(OC1CCN(CCCl)CC1)C(c1ccccc1)c1ccccc1
Raw Signal [5]: 54369 | Z-score [6]: -0.1621

CCCN(CCC)C1Cc2cc(OC)c(OC)cc2C1.O=C(O)/C=C\C(=O)O [U-99194A maleate]
Raw Signal [5]: 57664 | Z-score [7]: 0.3187

CN(C)c1ccc(O)c2c1C[C@H]1C[C@H]3[C@H](N(C)C)C(O)=C(C(N)=O)C(=O)[C@@]3(O)C(O)=C1C2=O [Minocycline hydrochloride]
Raw Signal [5]: 55658 | Z-score [7]: 0.2125

CN1CCC(c2c[nH]c3ccc(O)cc23)CC1.O=C(O)/C=C\C(=O)O [BRL 54443 maleate]
Raw Signal [1]: 53701 | Z-score [2]: -0.7419

CCN(CC)CCOCCOC(=O)C1(c2ccccc2)CCCC1 [Carbetapentane citrate]
Raw Signal [1]: 67390 | Z-score [8]: 1.669

C[C@@H](N)[C@H]1CC[C@H](C(=O)Nc2ccncc2)CC1.Cl.Cl [Y-27632 dihydrochloride]
Raw Signal [5]: 53228 | Z-score [6]: -0.3938

N[C@@H](CC(=O)O)C(=O)O [L-Aspartic acid]
Raw Signal [5]: 58223 | Z-score [7]: 0.05458

O=S(=O)(c1cccc2cnccc12)N1CCNCC1 [HA-100]
Raw Signal [3]: 57010 | Z-score [4]: 0.3743

CNCCc1ccc(O)c(O)c1.Cl [N-Methyldopamine hydrochloride]
Raw Signal [1]: 45936 | Z-score [2]: -1.875

Br.CCCN(CCC)[C@@H]1CCc2ccc(O)cc2C1 [R-(+)-7-Hydroxy-DPAT hydrobromide]
Raw Signal [1]: 62909 | Z-score [8]: 1.572

CCCCS(=N)(=O)CC[C@H](N)C(=O)O (stereo partly drawn) [L-Buthionine-sulfoximine]
Raw Signal [3]: 61284 | Z-score [4]: 0.5937

O=C(O)Cc1ccc(O)c(O)c1 [3,4-Dihydroxyphenylacetic acid]
Raw Signal [3]: 57060 | Z-score [4]: 0.3844

Cl.Cl.NCCC(=O)NCCc1c[nH]cn1 [Carcinine dihydrochloride]
Raw Signal [1]: 35878 | Z-score [2]: -3.881

C[C@]12CC[C@@H](O)C[C@@H]1CC[C@@H]1[C@@H]2CC[C@]2(C)C(=O)CC[C@@H]12 [Androsterone]
Raw Signal: 54396 | Z-score: -0.6195

Br.Oc1cc2c(c(Cl)c1O)CCNCC2c1ccccc1 (racemic) [(±)-6-Chloro-PB hydrobromide]
Raw Signal [5]: 55203 | Z-score [6]: -0.1595

C=CC[N+](C)(C)c1ccc(CCC(=O)CCc2ccc([N+](C)(C)CC=C)cc2)cc1.[Br-].[Br-] [BW 284c51]
Raw Signal [5]: 57519 | Z-score [7]: -0.06941

O=c1c(-c2ccc(O)cc2)coc2cc(O)ccc12 [Daidzein]
Raw Signal [3]: 57311 | Z-score [4]: 0.4354

O=C(N[C@@H](Cc1ccccc1)C(=O)CCl)OCc1ccccc1 [Z-L-Phe chloromethyl ketone]
Raw Signal [5]: 56278 | Z-score [6]: -0.288

OC[C@H]1O[C@@H](n2cnc3c(NCCc4ccccc4)ncnc32)[C@H](O)[C@@H]1O [N6-2-Phenylethyladenosine]
Raw Signal [1]: 52095 | Z-score [2]: -0.7633

CC1CCN=C(N)S1.Cl (racemic) [(±)-AMT hydrochloride]
Raw Signal [3]: 65458 | Z-score [4]: 1.329

C[N+](C)(C)CCCCCC[N+](C)(C)C.[Cl-].[Cl-] [Hexamethonium dichloride]
Raw Signal [3]: 57643 | Z-score [4]: 0.5028

CCCCNC(=O)NS(=O)(=O)c1ccc(C)cc1 [Tolbutamide]
Raw Signal [1]: 65444 | Z-score [8]: 1.83

CC(N/C(=N\C#N)Nc1ccncc1)C(C)(C)C (centres unmarked) [Pinacidil]
Raw Signal [5]: 55394 | Z-score [6]: -0.1224

CC1(C)CCC=[N+]1[O-] [5,5-Dimethyl-1-pyrroline-N-oxide]
Raw Signal [1]: 51954 | Z-score [2]: -0.6525

CCCN(CC1CC1)c1nc(C)nc(Nc2c(Cl)cc(Cl)cc2Cl)c1Cl [NBI 27914]
Raw Signal [1]: 52610 | Z-score [2]: -0.5193

CC(C(=O)O)c1ccc(CC2CCCC2=O)cc1 (centres unmarked) [loxoprofen]
Raw Signal [1]: 49153 | Z-score [2]: -0.8805

C[C@H]1C[C@H]2[C@@H]3CCC4=CC(=O)C=C[C@]4(C)[C@@]3(Cl)[C@@H](O)C[C@]2(C)[C@@]1(O)C(=O)CO [Beclomethasone]
Raw Signal [5]: 55439 | Z-score [6]: -0.4358
